Where two headings read alike, the source gives them in different places.
Key:
Melanoma B16F10 tumor = details: for T/C (antitumor activity index): B16F10 in C57BL/6 mice, ABX196 100 ng i.v. or 10 ng i.t. Day 10, anti-PD-1 mAb 100 μg i.p. Days 6, 9, 12, 15 and 18
Procedure: The study was performed on a syngeneic in vivo melanoma B16F10 tumor-bearing mouse model. B16F10 tumor cells were subcutaneously inoculated in immuno-competent C57BL/6 mice.
Melanoma B16F10 tumor cells were subcutaneously inoculated at day 0 by injecting cells in the flank of 8-10 weeks-old female C57BL/6 mice, and animals were then randomly assigned into control (vehicle PBS-treated) and treatments groups.
For the anti-PD-1 antibodies treatment, mice were intraperitoneally (IP) injected with anti-PD-1 antibodies at Day 6, 9, 12, 15 and 21. Furthermore, ABX196 was administered at 1 dose, intravenously or intratumorally, with one administration at Day 10 when mean of tumor size reached 100 mm^3.
The animal pharmacological groups for anti-tumor efficacy assessment were organized as such: • Control vehicle-treated group (PBS according to anti-PD-1 treatment schedule) • Anti-PD-1-treated group (at 1 dose, intraperitoneal administration) • ABX196-treated group (at 1 dose, Intravenous (iv) administration at Day10) • Combination-treated group (ABX196 at 1 dose, Intravenous (iv) administration at Day10 in combination with anti-PD-1 antibodies at 1 dose, intraperitoneal (ip) administration) • ABX196-treated group (at 1 dose, Intratumoral (it) administration at Day10) • Combination-treated group (ABX196 at 1 dose, Intratumoral (it) administration at Day10 in combination with anti-PD-1 antibodies at 1 dose, intraperitoneal (ip) administration)
Tumor volume and body weight of the animals were measured and recorded three times per week. A tumor volume exceeding 2000 mm3 or a weight loss greater than 15% relative to the initial weight of the animal were considered as endpoints.
B16F10 cells were implanted subcutaneously in the right flank of C57BL/6 immunocompetent mice (8 week-old female). The implantation procedure was as follows (all steps were carried out under sterile laminar flow conditions):
Mice (body weight around 20 g) were anesthetized with an intraperitoneal injection of 90 μL of anesthetic (ie 1.5 mg/Kg Ketamine and Xylazine 150 μg/Kg). The cells to be implanted were resuspended in sterile PBS and the volume needed to implant was loaded in 1 ml syringe with a needle (1,000,000 cells/100 μL).
Anti-PD-1 monoclonal antibodies (a-PD-1) treatment schedule was applied, at 100 μg by i.p. injection. Treatment was repeated 4 times, at Days 6, 9, 12, 15 and 18.
ABX196 was administered at Day 10 either: • by intravenous (i.v) injection at the dose of 100 ng per mouse; or • by intratumoral (i.t) injection at the dose of 10 ng per mouse
Starting from day 6 after B16F10 cell inoculation, all experimental animal groups were monitored 3 times per week over a 4 weeks period for the following parameters: • Tumor size: measured by physical examination, 3 times per week, • Body weight: monitored 3 times per week, and • Survival: represented in a Kaplan-Meier plot.

CT-26 Colorectal Cancer = assay: Antitumor activity of ABX196 alone or with anti-PD-1 antibody in mice bearing subcutaneous CT-26 colorectal cancer (Example 6); assay type: in vivo, mouse; details: CT-26 in BALB/c mice; ABX196 100 ng IV Q1Dx1; anti-PD-1 Ab 10 mg/kg IP TWx2
Procedure: Body weights were measured twice a week.

Hepa 1-6 Hepatocarcinoma = details: for Fraction alive / Fraction without detectable metastasis: Day 61, orthotopic Hepa 1-6 in C57BL/6 mice; for Tumor invasion of the liver at day 20, Dunn's multiple comparisons test vs Vehicle: Mean rank diff.: ABX196 100 ng IV D5, sorafenib 100 mg/kg PO Q1Dx21, doxorubicin 12 mg/kg IV D5, anti-PD-1 10 mg/kg IP D7/D10/D14/D17
Procedure: Tumor invasion was evaluated semi-quantitively by a visual evaluation of the percentage of tumor in the entire liver.
One million (1×106) of tumor cells in 50 μL of RPMI 1640 medium were transplanted via intra-splenic injection into 100 C57BL/6 mice. Briefly, a small left subcostal flank incision was made. Spleen was exteriorized. The spleen was exposed on the sterile gauze pad, and injected under visual control with the cell suspension with a 27-gauge needle. After the cell inoculation, the spleen was excised. The day of tumor cell injection was considered as DO.
The treatment started at D5. Ninety-nine animals (99) out of one hundred (100) were randomized according to their individual body weight into 3 groups of 13 animals and 5 groups of 12 animals using Vivo Manager® software (Biosystemes, Couternon, France). A statistical test (analysis of variance, ANOVA) was performed to test for homogeneity between groups. The treatment schedule was as follows: • Animals from group 1 received one IV injection of ABX196 vehicle at day 5, • Animals from group 2 received one daily PO administration of sorafenib at 100 mg/kg/adm for 21 consecutive days, starting at day 5, • Animals from group 3 received one IV injection of 100 ng of ABX196 on day 5 and one daily PO administration of sorafenib at 100 mg/kg/adm for 21 consecutive days, starting at day 5, • Animals from group 4 received one IV injection of Doxorubicin at 12 mg/kg on day 5, • Animals from group 5 received one IV injection of 100 ng of ABX196 and one IV injection of Doxorubicin at 12 mg/kg on day 5, • Animals from group 6 received 4 IP administrations of anti-PD-1 antibody on day 7, 10, 14 and 17 (Twice weekly×2), • Animals from group 7 received one IV injection of 100 ng of ABX196 on day 5 and 4 IP administrations of anti-PD-1 antibody on day 7, 10, 14 and 17 (Twice weekly×2).
At D19 and D20, 5 mice per group from group 1 to 8 were imaged (40 animals per day). A semi-quantitative analysis was then performed.
At the time of final mice termination (around D60), liver was weighted. The number of metastases was evaluated macroscopically and the localization, the appearance (shape, colour, consistency) and the size of each of them was recorded. Macroscopic photography of the liver was taken.
The treatment efficacy was assessed in terms of the effects of the test substance on the tumor volumes of treated animals relative to control animals. The following evaluation criteria of antitumor efficacy were determined: • Individual and/or mean (or median) measurement at D19-20 of tumor invasion within the liver using MRI imaging, • Measurement of circulating a-Fetoprotein in the plasma at D22, • Liver weight measured at termination, • Survival curves, • Median survival times.
Statistical analysis of tumor invasion between vehicle and each group at day 20.
Pair wise comparison with Dunn's test

[1] = Unpaired t test two tailed, with Welch's correction, listed as ABX196 i.t
[2] = Unpaired t test two tailed, with Welch's correction, listed as ABX196 i.v
[3] = MBT-2 in C3H/HeJ mice, ABX196 100 ng IV Q1Dx1, anti-PD-1 Ab 10 mg/kg IP TWx2

Procedure for B16-F10 melanoma: Tumor was induced by subcutaneous injection of 1×10^6 of B16-F10 cells in 200 μL of PBS buffer into the right flank of 95 C57BL/6 female animals. The day of tumor cell injection in the right flank was considered as D0.
On D3, 90 out of ninety-five 95 were then randomized according to their body weight into 6 groups each of 15 animals (groups 1-6).
The viability and behavior were recorded every day. Body weights were measured twice a week until injection of tumor cells then thrice a week. The length and width of the tumor were measured thrice a week with calipers and the volume of the tumor was estimated by the formula:
The treatment efficacy was assessed in terms of the effects of the vaccine composition on the tumor volumes of treated animals relative to control animals. The following evaluation criteria of antitumor efficacy was determined using Vivo Manager® software (Biosystemes, Couternon, France): • Individual, mean and median tumor volumes were provided, • The number of tumor-free mice was provided.
Mice survival was also monitored and used as an efficacy parameter. Survival curves were drawn.
Percent treated/control (T/C (%) index) is calculated by dividing the median treated tumor volume by the median control tumor volume on day 14 and multiplying by 100. A T/C % equal or less than 42% is considered significant antitumor activity by the drug evaluation branch of the division of cancer treatment (NCI).
Tumor growth inhibition is also reflective to the antitumor effectiveness and is calculated following the formula:
Mean tumor volumes at defined times were analyzed with the GrapadPrism Software (Version 6.07) using the Kruskall-Wallis test for all the treatments. A significant difference between all treatments (P<0.05) was followed by pairwise comparisons using the Dunn's multiple comparison test. Survival was analyzed using the Log-rank (Mantel-Cox) test with GrapadPrism Software (Version 6.07). A significant difference between all treatments (P<0.05) was followed by pairwise comparisons using the Log-rank (Mantel-Cox) test.
Procedure for MBT-2 Bladder Cancer: ABX196 was administered at the dose of 100 ng per mouse. The anti-PD-1 antibody was administered at the dose of 10 mg/kg.
MBT-2 tumors were induced by subcutaneous injection of 1×10^6 cells in 200 μL of RPMI 1640 into the right flank of sixty-eight (68) female animals.
The treatment started when the tumors reached a mean volume of 80-120 mm^3. […] A statistical test (analysis of variance, ANOVA) was performed to test for homogeneity between groups. The treatment schedule was as follows: • Animals from group 1 received an IV injection of ABX196 vehicle and an IP injection of anti-PD-1 antibody vehicle, • Animals from group 2 received an IV injection of 100 ng of ABX196, • Animals from group 3 received twice weekly administrations of anti-PD-1 antibody, • Animals from group 4 received an IV injection of 100 ng of ABX196 and twice weekly administrations of anti-PD-1 antibody.
The viability and behavior were recorded every day. Body weights were measured twice a week. The length and width of the tumor were measured twice a week with calipers and the volume of the tumor was estimated by the formula:
All statistical analyses were performed using Vivo Manager® software (Biosystemes, Couternon, France). Statistical analysis of mean body weights, MBWC, mean tumor volumes at randomization, mean tumor volumes V, mean times to reach V and mean tumor doubling times were performed using ANOVA. Pairwise tests were performed using the Bonferroni/Dunn correction in case of significant ANOVA results. The log-Rank (Kaplan-Meier) test was used to compare the survival curves. A p value <0.05 was considered as significant.

CCCCCCCCCCCCCCCCCCCCCCCC(=O)N[C@@H](CO[C@H]1O[C@H](CNC(C)=O)[C@H](O)[C@H](O)[C@H]1O)[C@H](O)[C@H](O)CCCCCCCCCCCCCC [ABX196]
Effect on tumor volume (in words) (Melanoma B16F10 tumor; B16F10 bearing mice, FIGS. 5 and 6): transient effect
T/C (antitumor activity index) (Melanoma B16F10 tumor; listed as ABX196 it): 53
T/C (antitumor activity index) (Melanoma B16F10 tumor; listed as ABX196 iv): 51
Mean Tumor Volume at Day 17 (p value) vs ABX196 i.v (Melanoma B16F10 tumor; Unpaired t test two tailed, with Welch's correction, vs ABX196 i.v): 0.0554
Mean Tumor Volume at Day 17 (p value) vs Vehicle (Melanoma B16F10 tumor; [1]): 0.8942
Mean Tumor Volume at Day 17 (p value) vs Vehicle (Melanoma B16F10 tumor; [2]): 0.2838
Mean Tumor Volume at Day 17 (p value) vs αPD-1 + ABX196 i.v (Melanoma B16F10 tumor; Unpaired t test two tailed, with Welch's correction, vs αPD-1 + ABX196 i.v): <0.0001
Mean Tumor Volume at Day 17 (p value) vs αPD-1 (Melanoma B16F10 tumor; [1]): 0.2031
Mean Tumor Volume at Day 17 (p value) vs αPD-1 (Melanoma B16F10 tumor; [2]): 0.7081
Mean Tumor Volume at Day 17 (Significativity) vs αPD-1 + ABX196 i.v (Melanoma B16F10 tumor; vs αPD-1 + ABX196 i.v): **** (****p < 0.0001)
Statistical analysis of mice survival, pairwise p vs ABX196 + Anti-PD-1 (MBT-2 Bladder Cancer; MBT-2, Log-Rank (Mantel-cox) test, vs ABX196 + Anti-PD-1): ***0.0002
Statistical analysis of mice survival, pairwise p vs Vehicle (MBT-2 Bladder Cancer; MBT-2, Log-Rank (Mantel-cox) test, vs Vehicle): *0.02
Median Survival (MBT-2 Bladder Cancer; MBT-2 bearing mice, ABX196 100 ng IV, anti-PD-1 Ab 10 mg/kg IP TWx2): 27 days
T/C (antitumor activity index) (MBT-2 Bladder Cancer; [3]): 57
TGI (antitumor activity index) (MBT-2 Bladder Cancer; [3]): 43
T/C (antitumor activity index) (CT-26 Colorectal Cancer): 51
TGI (antitumor activity index) (CT-26 Colorectal Cancer): 72

COc1cccc2c1C(=O)c1c(O)c3c(c(O)c1C2=O)C[C@@](O)(C(=O)CO)C[C@@H]3O[C@H]1C[C@H](N)[C@H](O)[C@H](C)O1 [Doxorubicin, doxorubicin]
Tumor growth in comparison to the vehicle-treated group (in words) (B16-F10 melanoma; B16-F10 tumors in C57BL/6 mice, FIGS. 1 and 3): weak and non-significant
Median Survival (B16-F10 melanoma; C57BL/6 mice, s.c. B16-F10 (1×10^6 cells), CL II-TRP2/ABX196 50 μg/1 μg IV D3, anti-PD-1 Ab 10 mg/kg IP D10/D14/D17/D21, doxorubicin 12 mg/kg IV D7): 21 days
Statistical analysis of tumor growth at D17, pairwise comparison with TRP2-ABX196 (B16-F10 melanoma; D17, Dunn's multiple comparison test, vs TRP2-ABX196): ns
Statistical analysis of tumor growth at D17, pairwise comparison with TRP2-ABX196 + Doxo. (B16-F10 melanoma; D17, Dunn's multiple comparison test, vs TRP2-ABX196 + Doxo.): * (*P < 0.05)
Statistical analysis of tumor growth at D17, pairwise comparison with TRP2-ABX196 + α-PD-1 (B16-F10 melanoma; D17, Dunn's multiple comparison test, vs TRP2-ABX196 + α-PD-1): ns
Statistical analysis of tumor growth at D17, pairwise comparison with Vehic. (B16-F10 melanoma; D17, Dunn's multiple comparison test, vs Vehic.): ns
Statistical analysis of tumor growth at D17, pairwise comparison with α-PD-1 (B16-F10 melanoma; D17, Dunn's multiple comparison test, vs α-PD-1): ns
Statistical analysis of tumor growth at D19, pairwise comparison with TRP2-ABX196 (B16-F10 melanoma; D19, Dunn's multiple comparison test, vs TRP2-ABX196): ns
Statistical analysis of tumor growth at D19, pairwise comparison with TRP2-ABX196 + Doxo. (B16-F10 melanoma; D19, Dunn's multiple comparison test, vs TRP2-ABX196 + Doxo.): * (*P < 0.05)
Statistical analysis of tumor growth at D19, pairwise comparison with TRP2-ABX196 + α-PD-1 (B16-F10 melanoma; D19, Dunn's multiple comparison test, vs TRP2-ABX196 + α-PD-1): ns
Statistical analysis of tumor growth at D19, pairwise comparison with Vehic. (B16-F10 melanoma; D19, Dunn's multiple comparison test, vs Vehic.): ns
Statistical analysis of tumor growth at D19, pairwise comparison with α-PD-1 (B16-F10 melanoma; D19, Dunn's multiple comparison test, vs α-PD-1): ns
Statistical analysis of mice survival, pairwise P vs α-PD-1 (row head as printed) (B16-F10 melanoma; Log-rank (Mantel-Cox) test, listed as printed as α-PD-1): 0.624
Statistical analysis of mice survival, pairwise P vs Vehicle (B16-F10 melanoma; Log-rank (Mantel-Cox) test, vs Vehicle): 0.0015
T/C (anti-tumor activity index) (B16-F10 melanoma; day 14, median treated / median control tumor volume ×100, B16-F10 in C57BL/6 mice): 56.3%
Fraction alive (Hepa 1-6 Hepatocarcinoma): 9/12
Fraction without detectable metastasis (Hepa 1-6 Hepatocarcinoma): 9/12
Tumor invasion of the liver at day 20, Dunn's multiple comparisons test vs Vehicle: Mean rank diff. (Hepa 1-6 Hepatocarcinoma; MRI, day 20): 28.52
Tumor invasion of the liver at day 20, Dunn's multiple comparisons test vs Vehicle: Significant? (Hepa 1-6 Hepatocarcinoma; MRI, day 20, vs Vehicle): Yes

CNC(=O)c1cc(Oc2ccc(NC(=O)Nc3ccc(Cl)c(C(F)(F)F)c3)cc2)ccn1 [Sorafenib]
Fraction alive (Hepa 1-6 Hepatocarcinoma): 5/13
Fraction without detectable metastasis (Hepa 1-6 Hepatocarcinoma): 5/13
Tumor invasion of the liver at day 20, Dunn's multiple comparisons test vs Vehicle: Mean rank diff. (Hepa 1-6 Hepatocarcinoma; MRI, day 20): 8.644
Tumor invasion of the liver at day 20, Dunn's multiple comparisons test vs Vehicle: Significant? (Hepa 1-6 Hepatocarcinoma; MRI, day 20, vs Vehicle): No
Tumor invasion of the liver at day 20, Dunn's multiple comparisons test vs Vehicle: Summary (Hepa 1-6 Hepatocarcinoma; MRI, day 20, vs Vehicle): ns
